How the values were obtained:
NCI-H2171 = assay: Antiproliferative activity against human NCI-H2171 cells after 72 hrs by ATPlite assay; assay type: functional, cell-based; settings: NCI-H2171, 72 h
[1] = target: Myc proto-oncogene protein (Homo sapiens, UniProt P01106); assay: Inhibition of human c-Myc assessed as reduction in c-Myc/Max/Ebox DNA complex formation using pre-formed complex of c-Myc and biotinylated DNA containing single Ebox-sequence followed by compound addition and further addition of his6-tagged c-Max and incubated for 2 hrs by AlphaScreen assay
Myc proto-oncogene protein, sequence (P01106 whole entry): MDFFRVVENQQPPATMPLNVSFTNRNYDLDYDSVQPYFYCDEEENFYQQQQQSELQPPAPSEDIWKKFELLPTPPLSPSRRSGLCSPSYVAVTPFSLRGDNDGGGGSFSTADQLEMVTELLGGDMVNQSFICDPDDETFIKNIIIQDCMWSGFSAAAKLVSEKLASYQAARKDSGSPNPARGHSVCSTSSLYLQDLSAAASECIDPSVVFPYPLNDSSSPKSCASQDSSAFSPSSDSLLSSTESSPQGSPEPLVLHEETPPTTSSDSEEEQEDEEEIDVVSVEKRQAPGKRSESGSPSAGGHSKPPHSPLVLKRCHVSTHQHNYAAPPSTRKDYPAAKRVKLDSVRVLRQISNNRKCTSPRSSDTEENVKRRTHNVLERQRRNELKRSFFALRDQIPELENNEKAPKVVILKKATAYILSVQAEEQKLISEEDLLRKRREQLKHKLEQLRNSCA

| SMILES | IC50 (NCI-H2171) [nM] | IC50 [1] [nM] |
| --- | --- | --- |
| CC(C)NCCC(=O)Nc1sc2c(c1-c1nc3cc(-c4ccc(O)cc4)ccc3s1)CCNC2 | 300 to 1000 | < 300 |
| COCCNCCC(=O)Nc1sc2c(c1-c1nc3cc(-c4cncc(C#N)c4)ccc3s1)CCNC2 | 300 to 1000 | 300 to 1000 |
| CC(C)NCCC(=O)Nc1sc2c(c1-c1nc3ccccc3s1)CC1CCC2N1 (stereo not given) | < 300 | 1000 to 10000 |
| COCCNCCC(=O)Nc1sc2c(c1-c1nc3ccc(-c4ccc5nc(N)ncc5c4)cc3s1)CCNC2 | < 300 | > 10000 |
| COCCNCCC(=O)Nc1sc2c(c1-c1nc3cc(-c4cc(C)[nH]n4)ccc3s1)CCNC2 | < 300 | 300 to 1000 |
| COCCNCCC(=O)Nc1sc2c(c1-c1nc3cc(-c4cncc(C(F)(F)F)c4)ccc3s1)CCNC2 | < 300 | 300 to 1000 |
| COCCNCCC(=O)Nc1sc2c(c1-c1nc3cc(-c4ccncc4C)ccc3s1)CCNC2 | < 300 | 1000 to 10000 |
| CC(C)NCCC(=O)Nc1sc2c(c1-c1nc3cc(-c4cn[nH]c4)ccc3s1)CCNC2 | < 300 | < 300 |
| COCCNCCC(=O)Nc1sc2c(c1-c1nc3ccc(-c4cncc(C)c4)cc3s1)CCNC2 | < 300 | 1000 to 10000 |
| CC(=O)Nc1sc2c(c1-c1nc3ccc(-c4cnn(C)c4)cc3s1)CCNC2 | 300 to 1000 | 300 to 1000 |
| COCCNCCC(=O)Nc1sc2c(c1-c1nc3ccc(-c4cncc(F)c4)cc3s1)CCNC2 | < 300 | 300 to 1000 |
| CC(C)NCCC(=O)Nc1sc2c(c1-c1nc3cc(Sc4ccccn4)ccc3s1)CCNC2 | < 300 | 1000 to 10000 |
| COCCNCCC(=O)Nc1sc2c(c1-c1nc3ccc(-c4cncc(N)c4)cc3s1)CCNC2 | < 300 | 300 to 1000 |
| COCCNCCC(=O)Nc1sc2c(c1-c1nc3cc(-c4ccc(OC(C)C)nc4)ccc3s1)CCNC2 | < 300 | 1000 to 10000 |
| CC(C)N1CCc2c(sc(NC(=O)CCN3CCOCC3)c2-c2nc3ccccc3s2)C1 | < 300 | 300 to 1000 |
| COCCNCCC(=O)Nc1sc2c(c1-c1nc3cc(-c4cncc(OCCOC)c4)ccc3s1)CCNC2 | < 300 | 300 to 1000 |
| CC(C)NCCC(=O)Nc1sc2c(c1-c1nc3ccccc3o1)CCNC2 | < 300 | 300 to 1000 |
| O=C(C[C@H]1CCCN1)Nc1sc2c(c1-c1nc3ccccc3s1)CCNC2 | < 300 | 300 to 1000 |
| COCCNCCC(=O)Nc1sc2c(c1-c1nc3ccc(-c4cccc(S(N)(=O)=O)c4)cc3s1)CCNC2 | < 300 | 300 to 1000 |
| COCCNCCC(=O)Nc1sc2c(c1-c1nc3ccc(-c4cncnc4)cc3s1)CCNC2 | < 300 | 300 to 1000 |

| SMILES | IC50 (NCI-H2171) [nM] | IC50 [1] [nM] |
| --- | --- | --- |
| O=C(CCNC1C2CC1C2)Nc1sc2c(c1-c1nc3ccccc3s1)CCNC2 (stereo not given) | 300 to 1000 | 1000 to 10000 |
| CC(=O)Nc1sc2c(c1-c1nc3cc(-c4cnn(C)c4)ccc3s1)CCNC2 | < 300 | 300 to 1000 |
| CCN(CC)CCC(=O)Nc1sc2c(c1-c1nc3ccccc3s1)CCNC2 | < 300 | 300 to 1000 |
| CC(C)NCCC(=O)Nc1sc2c(c1-c1nc3cc(S(=O)(=O)C4CCCC4)ccc3s1)CCNC2 | < 300 | 300 to 1000 |
| COCCNCCC(=O)Nc1sc2c(c1-c1nc3ccccc3s1)CCN[C@@H]2C | < 300 | < 300 |
| CC(C)NCCC(=O)Nc1sc2c(c1-c1nc3ccc(-c4cnn(C)c4)cc3s1)CCNC2 | < 300 | < 300 |
| COCCNCCC(=O)Nc1sc2c(c1-c1nc3cc(-c4ccc(C(=O)N(C)C)cc4F)ccc3s1)CCNC2 | < 300 | 300 to 1000 |
| CC(C)N1CCc2c(sc(NC(=O)CCN3CCN(C)CC3)c2-c2nc3ccccc3s2)C1 | 300 to 1000 | 300 to 1000 |
| COCCNCCC(=O)Nc1sc2c(c1-c1nc3c(-n4ccnc4C)cccc3s1)CCNC2 | < 300 | 300 to 1000 |
| CC(C)N1CCc2c(sc(NC(=O)CCNCc3ccccc3)c2-c2nc3ccccc3s2)C1 | 1000 to 10000 | 1000 to 10000 |
| COCCNCCC(=O)Nc1sc2c(c1-c1nc3ccc(-c4cccc(NS(C)(=O)=O)c4)cc3s1)CCNC2 | < 300 | 300 to 1000 |
| COCCNCCC(=O)Nc1sc2c(c1-c1nc3cc(-c4cncnc4)ccc3s1)CCNC2 | 300 to 1000 | < 300 |
| COCCNCCC(=O)Nc1sc2c(c1-c1nc3cc(-c4cnn(Cc5ccccc5)c4)ccc3s1)CCNC2 | < 300 | 1000 to 10000 |
| COCCNCCC(=O)Nc1sc2c(c1-c1nc3cc(-c4ccc(C(F)(F)F)nc4)ccc3s1)CCNC2 | < 300 | 1000 to 10000 |
| COCCNCCC(=O)Nc1sc2c(c1-c1nc3ccc(-c4ccnc(NC(C)=O)c4)cc3s1)CCNC2 | < 300 | 300 to 1000 |
| CCc1cccc2sc(-c3c(NC(=O)CCNCCOC)sc4c3CCNC4)nc12 | < 300 | < 300 |
| COCCNCCC(=O)Nc1sc2c(c1-c1nc3ccc(-c4c[nH]nc4C)cc3s1)CCNC2 | < 300 | 300 to 1000 |
| CCC(C)N(CCC(=O)Nc1sc2c(c1-c1nc3ccccc3s1)CCNC2)C(C)=O (stereo not given) | 1000 to 10000 | 1000 to 10000 |
| COCCNCCC(=O)Nc1sc2c(c1-c1nc3cc(-c4ccc(N5CCOCC5)nc4)ccc3s1)CCNC2 | 300 to 1000 | 300 to 1000 |
| COCCNCCC(=O)Nc1sc2c(c1-c1nc3ccc(-c4ccnc(OC)c4)cc3s1)CCNC2 | < 300 | 300 to 1000 |

From ChEMBL document CHEMBL4476874, “Compounds for the modulation of myc activity” (2018)
